This passage reports IC50 results from patent publication US20250197372A1 (priority 2020, published 2025).

Structures are written as SMILES.

This experiment has as its target T1, recombinant alpha-glucosidase I (human full-length glucosidase I, Glu 1) (Homo sapiens, UniProt Q13724).
T1 construct: 6-His (C); made in house; host or cells: HEK-293T cells transduced with BacMam virus (virus raised in Sf9)
T1 sequence (Q13724 1-837): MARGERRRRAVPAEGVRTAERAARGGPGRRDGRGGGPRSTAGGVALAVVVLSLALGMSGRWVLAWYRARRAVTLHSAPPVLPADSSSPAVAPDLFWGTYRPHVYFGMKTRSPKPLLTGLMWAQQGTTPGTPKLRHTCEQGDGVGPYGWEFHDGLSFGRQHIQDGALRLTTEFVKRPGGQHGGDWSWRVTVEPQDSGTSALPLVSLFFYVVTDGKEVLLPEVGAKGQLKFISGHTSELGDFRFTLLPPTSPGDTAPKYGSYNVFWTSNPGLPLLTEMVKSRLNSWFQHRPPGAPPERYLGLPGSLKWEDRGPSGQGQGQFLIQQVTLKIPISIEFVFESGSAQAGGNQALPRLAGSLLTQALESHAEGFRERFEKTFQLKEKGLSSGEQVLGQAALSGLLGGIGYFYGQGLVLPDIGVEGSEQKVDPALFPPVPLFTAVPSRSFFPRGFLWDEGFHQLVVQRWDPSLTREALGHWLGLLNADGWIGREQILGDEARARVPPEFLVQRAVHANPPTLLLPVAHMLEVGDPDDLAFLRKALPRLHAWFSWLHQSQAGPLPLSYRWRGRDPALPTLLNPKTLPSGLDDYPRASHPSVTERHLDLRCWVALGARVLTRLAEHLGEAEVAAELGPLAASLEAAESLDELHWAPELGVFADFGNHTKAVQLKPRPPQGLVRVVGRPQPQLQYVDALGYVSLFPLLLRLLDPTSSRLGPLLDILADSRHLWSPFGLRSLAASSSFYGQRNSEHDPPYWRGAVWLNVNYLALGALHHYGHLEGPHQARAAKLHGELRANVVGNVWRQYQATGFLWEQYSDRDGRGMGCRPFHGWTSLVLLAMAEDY
Kind of experiment: Alpha-glucosidase I assay (Amplex Red glucose detection, synthetic trisaccharide substrate). Type of experiment: biochemical. The conditions noted are these: Glucosidase 1; read-out: Glu 1 IC50. A digest of the protocol:
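Compound dilution series incubated 60 min at 37° C with recombinant His-tagged human glucosidase I ([…]), after which trisaccharide substrate analog was added for 90 min at 37° C. Reaction quenched with 1.5M Tris pH 8; D-glucose detected by Amplex Red fluorescence, 560/590 nm. 4-PL curve fit of percent inhibition gave IC50.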

As for `O=[N+]([O-])c1cc(-c2ncc[nH]2)ccc1NCCc1ccc(CCN2C[C@H](O)[C@@H](O)[C@H](O)[C@H]2CO)cc1` [Compound 1078, (2R,3R,4R,5S)-2-(hydroxymethyl)-1-{2-[4-(2-{[4-(1H-imidazol-2-yl)-2-nitrophenyl]amino}ethyl)phenyl]ethyl}piperidine-3,4,5-triol], the IC50 is 200 nM.

`OC[C@@H]1[C@@H](O)[C@H](O)[C@@H](O)CN1Cc1cccc(CNc2ccc(N3CCOCC3)cc2)c1` [Compound 1081, (2R,3R,4R,5S)-2-(hydroxymethyl)-1-{[3-({[4-(morpholin-4-yl)phenyl]amino}methyl)phenyl]methyl}piperidine-3,4,5-triol]: the IC50 amounted to 169 nM.

With `OC[C@@H]1[C@@H](O)[C@H](O)[C@@H](O)CN1Cc1cccc(CNc2ccc(-c3ccc[nH]3)cc2)c1` [Compound 1082, (2R,3R,4R,5S)-2-(hydroxymethyl)-1-{[3-({[4-(1H-pyrrol-2-yl)phenyl]amino}methyl)phenyl]methyl}piperidine-3,4,5-triol], the IC50 was found to be 69 nM.

As to `OC[C@@H]1[C@@H](O)[C@H](O)[C@@H](O)CN1Cc1cccc(CNc2ccc(-c3cccnn3)cc2)c1` [Compound 1083, (2R,3R,4R,5S)-2-(hydroxymethyl)-1-{[3-({[4-(pyridazin-3-yl)phenyl]amino}methyl)phenyl]methyl}piperidine-3,4,5-triol], the IC50 came to 72 nM.

For `OC[C@@H]1[C@@H](O)[C@H](O)[C@@H](O)CN1Cc1cccc(CNc2ccc(-c3ncccn3)cc2)c1` [Compound 1084, (2R,3R,4R,5S)-2-(hydroxymethyl)-1-{[3-({[4-(pyrimidin-2-yl)phenyl]amino}methyl)phenyl]methyl}piperidine-3,4,5-triol], the IC50 was 79 nM.

Consider `O=[N+]([O-])c1cc(CN2CCCO2)ccc1NCc1cccc(CN2C[C@H](O)[C@@H](O)[C@H](O)[C@H]2CO)c1` [Compound 1086], for which the IC50 is 132 nM.

On to `O=[N+]([O-])c1cc(C2=COCCO2)ccc1NCc1cccc(CN2C[C@H](O)[C@@H](O)[C@H](O)[C@H]2CO)c1` [Compound 1087, (2R,3R,4R,5S)-1-{[3-({[4-(5,6-dihydro-1,4-dioxin-2-yl)-2-nitro-phenyl]amino}methyl)phenyl]methyl}-2-(hydroxymethyl)piperidine-3,4,5-triol], for which the IC50 is less than 1 nM.

On to `O=[N+]([O-])c1cc(-c2ccc[nH]2)ccc1NCc1cccc(CN2C[C@H](O)[C@@H](O)[C@H](O)[C@H]2CO)c1` [Compound 1088, (2R,3R,4R,5S)-2-(hydroxymethyl)-1-{[3-({[2-nitro-4-(1H-pyrrol-2-yl)phenyl]amino}methyl)phenyl]methyl}piperidine-3,4,5-triol], for which the IC50 was less than 1 nM.

On to `O=[N+]([O-])c1cc(-c2cccnn2)ccc1NCc1cccc(CN2C[C@H](O)[C@@H](O)[C@H](O)[C@H]2CO)c1` [Compound 1089, (2R,3R,4R,5S)-2-(hydroxymethyl)-1-{[3-({[2-nitro-4-(pyridazin-3-yl)phenyl]amino}methyl)phenyl]methyl}piperidine-3,4,5-triol], for which the IC50 is 26 nM.

On to `O=[N+]([O-])c1cc(-c2ncccn2)ccc1NCc1cccc(CN2C[C@H](O)[C@@H](O)[C@H](O)[C@H]2CO)c1` [Compound 1090, (2R,3R,4R,5S)-2-(hydroxymethyl)-1-{[3-({[2-nitro-4-(pyrimidin-2-yl)phenyl]amino}methyl)phenyl]methyl}piperidine-3,4,5-triol], for which the IC50 came out at 7 nM.

As to `OC[C@@H]1[C@@H](O)[C@H](O)[C@@H](O)CN1Cc1ccc(CNc2ccc(CN3CCCO3)cc2)cc1` [Compound 1092, (2R,3R,4R,5S)-2-(hydroxymethyl)-1-({4-[({4-[(1,2-oxazolidin-2-yl)methyl]phenyl}amino)methyl]phenyl}methyl)piperidine-3,4,5-triol], the IC50 is 59 nM.

With `OC[C@@H]1[C@@H](O)[C@H](O)[C@@H](O)CN1Cc1ccc(CNc2ccc(C3=COCCO3)cc2)cc1` [Compound 1093, (2R,3R,4R,5S)-1-{[4-({[4-(5,6-dihydro-1,4-dioxin-2-yl)phenyl]amino}methyl)phenyl]methyl}-2-(hydroxymethyl)piperidine-3,4,5-triol], the IC50 worked out at 12 nM.

Regarding `OC[C@@H]1[C@@H](O)[C@H](O)[C@@H](O)CN1Cc1ccc(CNc2ccc(-c3ccc[nH]3)cc2)cc1` [Compound 1094, (2R,3R,4R,5S)-2-(hydroxymethyl)-1-{[4-({[4-(1H-pyrrol-2-yl)phenyl]amino}methyl)phenyl]methyl}piperidine-3,4,5-triol], the IC50 stood at 28 nM.

On to `OC[C@@H]1[C@@H](O)[C@H](O)[C@@H](O)CN1Cc1ccc(CNc2ccc(-c3ncccn3)cc2)cc1` [Compound 1096, (2R,3R,4R,5S)-2-(hydroxymethyl)-1-{[4-({[4-(pyrimidin-2-yl)phenyl]amino}methyl)phenyl]methyl}piperidine-3,4,5-triol], for which the IC50 came out at 15 nM.

Take `O=[N+]([O-])c1cc(C2=COCCO2)ccc1NCc1ccc(CN2C[C@H](O)[C@@H](O)[C@H](O)[C@H]2CO)cc1` [Compound 1099, (2R,3R,4R,5S)-1-{[4-({[4-(5,6-dihydro-1,4-dioxin-2-yl)-2-nitrophenyl]amino}methyl)phenyl]methyl}-2-(hydroxymethyl)piperidine-3,4,5-triol]: the 50% inhibitory concentration (IC50) is less than 1 nM.

In the case of `O=[N+]([O-])c1cc(-c2ccc[nH]2)ccc1NCc1ccc(CN2C[C@H](O)[C@@H](O)[C@H](O)[C@H]2CO)cc1` [Compound 1100, (2R,3R,4R,5S)-2-(hydroxymethyl)-1-{[4-({[2-nitro-4-(1H-pyrrol-2-yl)phenyl]amino}methyl)phenyl]methyl}piperidine-3,4,5-triol], the IC50 was less than 1 nM.

In the case of `O=[N+]([O-])c1cc(-c2cccnn2)ccc1NCc1ccc(CN2C[C@H](O)[C@@H](O)[C@H](O)[C@H]2CO)cc1` [Compound 1101, (2R,3R,4R,5S)-2-(hydroxymethyl)-1-{[4-({[2-nitro-4-(pyridazin-3-yl)phenyl]amino}methyl)phenyl]methyl}piperidine-3,4,5-triol], the 50% inhibitory concentration (IC50) was less than 1 nM.

As to `O=[N+]([O-])c1cc(-c2ncccn2)ccc1NCc1ccc(CN2C[C@H](O)[C@@H](O)[C@H](O)[C@H]2CO)cc1` [Compound 1102, (2R,3R,4R,5S)-2-(hydroxymethyl)-1-{[4-({[2-nitro-4-(pyrimidin-2-yl)phenyl]amino}methyl)phenyl]methyl}piperidine-3,4,5-triol], the IC50 was less than 1 nM.

As for `[N-]=[N+]=Nc1ccc(NCCC23CC(CCN4C[C@H](O)[C@@H](O)[C@H](O)[C@H]4CO)(C2)C3)c([N+](=O)[O-])c1` [Compound 1103, (2R,3R,4R,5S)-1-[2-(3-{2-[(4-azido-2-nitrophenyl)amino]ethyl}bicyclo[1.1.1]pentan-1-yl)ethyl]-2-(hydroxymethyl)piperidine-3,4,5-triol], the IC50 turned out to be 267 nM.

Take `[N-]=[N+]=Nc1ccc(NCc2ccc(Cc3ccc(CN4C[C@H](O)[C@@H](O)[C@H](O)[C@H]4CO)cc3)cc2)c([N+](=O)[O-])c1` [Compound 1105, (2R,3R,4R,5S)-1-({4-[(4-{[(4-azido-2-nitrophenyl)amino]methyl}phenyl)methyl]phenyl}methyl)-2-(hydroxymethyl)piperidine-3,4,5-triol]: the IC50 amounted to 16 nM.

`[N-]=[N+]=Nc1ccc(NCC[C@H]2CC[C@@H](CCN3C[C@H](O)[C@@H](O)[C@H](O)[C@H]3CO)CC2)c([N+](=O)[O-])c1` [Compound 1106, (2R,3R,4R,5S)-2-(hydroxymethyl)-1-{2-[(1s,4s)-4-{2-[(4-azido-2-nitrophenyl)amino]ethyl}cyclohexyl]ethyl}piperidine-3,4,5-triol]: the IC50 was less than 1 nM.

For `[N-]=[N+]=Nc1ccc(NCC[C@H]2CC[C@H](CCN3C[C@H](O)[C@@H](O)[C@H](O)[C@H]3CO)CC2)c([N+](=O)[O-])c1` [Compound 1107, (2R,3R,4R,5S)-2-(hydroxymethyl)-1-{2-[(1r,4r)-4-{2-[(4-azido-2-nitrophenyl)amino]ethyl}cyclohexyl]ethyl}piperidine-3,4,5-triol], the IC50 turned out to be 107 nM.

Consider `O=[N+]([O-])c1cc(CN2CCCO2)ccc1NCCc1ccc(CCN2C[C@H](O)[C@@H](O)[C@H](O)[C@H]2CO)cc1` [Compound 1108, (2R,3R,4R,5S)-2-(hydroxymethyl)-1-(2-{4-[2-({2-nitro-4-[(1,2-oxazolidin-2-yl)methyl]phenyl}amino)ethyl]phenyl}ethyl)piperidine-3,4,5-triol], for which the IC50 stood at 247 nM.

Consider `O=[N+]([O-])c1cc(-c2cccnn2)ccc1NCCc1ccc(CCN2C[C@H](O)[C@@H](O)[C@H](O)[C@H]2CO)cc1` [Compound 1109, (2R,3R,4R,5S)-2-(hydroxymethyl)-1-{2-[4-(2-{[2-nitro-4-(pyridazin-3-yl)phenyl]amino}ethyl)phenyl]ethyl}piperidine-3,4,5-triol], for which the IC50 stood at 6 nM.

One may read the IC50 as the concentration needed to halve the response being measured.
